Our source for the IC50 values is US20230159445A1, “STAT INHIBITORY COMPOUNDS AND COMPOSITIONS” (JANPIX LIMITED, priority 2020, published 2023).

This experiment concerns MV4-11 cells. As to the kind of experiment: MV4-11 Cell Cytotoxicity Assay (CellTiter-Blue, 72 h). Particulars: Homo sapiens, MV4-11; MV-4-11 cells. The format is cell-based, human. As for the experimental part: In some embodiments, the potency of the STAT5 inhibitors are evaluated by an in vitro assay such as MV4-11 Cell Cytotoxicity Assay. […] 10,000 cells were plated per well in 96-well flat-bottom sterile culture plates with low-evaporation lids. After 24 h, inhibitors and a vehicle control (0.5% DMSO) were added and the cells were incubated for 72 h at 37° C. in 5% CO2. Inhibitors were examined in triplicate at a maximal concentration of 50 μM, followed by 1:2 dilutions in subsequent wells (25, 12.5, 6.25, 3.125, 1.5625, 0.78125, 0.390625, 0.195313 and 0.097656 μM). After 72 h, the wells were treated with CellTiter-Blue® (20 μL/well), and the plates were incubated using standard cell culture conditions for 1 hour. Fluorescence was measured at 560/590 nm.
(Alamar Blue is a resazurin reagent that responds to reducing activity.)
For orientation: IC50 means the concentration that gives 50% inhibition. Compound `CC(C)(C)c1cc(CN(C(=O)CN(Cc2ccccn2)S(=O)(=O)c2c(F)c(F)c(F)c(F)c2F)c2ccc(C(=O)O)c(O)c2)cc(C2CC2)c1` [Compound 1008, 4-(N-(3-(tert-butyl)-5-cyclopropylbenzyl)-2-(N-(pyridin-2-ylmethyl)-(2,3,4,5,6-pentafluorophenyl)sulfonamido)acetamido)-2-hydroxybenzoic acid] had a 50% inhibitory concentration (IC50) of 3.16 to 100 µM.

Regarding `COc1c(CN(C(=O)CN(Cc2ccc(Cl)cc2)S(=O)(=O)c2c(F)c(F)c(F)c(F)c2F)c2ccc(C(=O)O)c(O)c2)cc(C(C)(C)C)cc1C1CC1` [Compound 1009, 4-(N-(5-(tert-butyl)-3-cyclopropyl-2-methoxybenzyl)-2-(N-(4-chlorobenzyl)-(2,3,4,5,6-pentafluorophenyl)sulfon-amido)acetamido)-2-hydroxybenzoic acid], the IC50 was 3.16 to 100 µM.

In turn, `O=C(O)c1ccc(N(Cc2cc(OCC3CC3)cc(OCC3CC3)c2)C(=O)CN(Cc2ccc(Cl)cc2)S(=O)(=O)c2c(F)c(F)c(F)c(F)c2F)cc1O` [Compound 1011, 4-(N-(3,5-bis(cyclopropylmethoxy)benzyl)-2-(N-(4-chlorobenzyl)-(2,3,4,5,6-pentafluorophenyl)sulfon-amido)acetamido)-2-hydroxybenzoic acid] gave a concentration for half-maximal inhibition (IC50) of 3.16 to 100 µM.

The compound `CC(C)(C)c1cc(CN(C(=O)CN(Cc2cccnc2)S(=O)(=O)c2c(F)c(F)c(F)c(F)c2F)c2ccc(C(=O)O)c(O)c2)cc(C2CC2)c1` [Compound 1013, 4-(N-(3-(tert-butyl)-5-cyclopropylbenzyl)-2-(N-(pyridin-3-ylmethyl)-(2,3,4,5,6-pentafluoro-phenyl)sulfonamido)acetamido)-2-hydroxybenzoic acid] gave an IC50 of 3.16 to 100 µM.

As to `CC(C)(C)c1cc(CN(C(=O)CN(Cc2ccc(Cl)cc2)S(=O)(=O)c2c(F)c(F)c(F)c(F)c2F)c2ccc(O)c(C(=O)O)c2)cc(C2CC2)c1` [Compound 1018, 5-(N-(3-(tert-butyl)-5-cyclopropylbenzyl)-2-(N-(4-chlorobenzyl)-(2,3,4,5,6-pentafluorophenyl)sulfon-amido)acetamido)-2-hydroxybenzoic acid], the IC50 was in the range of 3.16 to 100 µM.

`CC(C)(C)c1cc(CN(C(=O)CN(Cc2ccc(Cl)cc2)S(=O)(=O)c2c(F)c(F)c(F)c(F)c2F)c2ccc(C(C)(C)C(=O)O)cc2)cc(C2CC2)c1` [Compound 1019, 2-(4-(N-(3-(tert-butyl)-5-cyclopropylbenzyl)-2-(N-(4-chlorobenzyl)-(2,3,4,5,6-pentafluorophenyl)sulfon-amido)acetamido)phenyl)-2-methylpropanoic acid] had an IC50 of 1 to 3.16 µM.

`O=C(O)c1ccc(N(Cc2cc(O)cc(OCC3CC3)c2)C(=O)CN(Cc2ccc(Cl)cc2)S(=O)(=O)c2c(F)c(F)c(F)c(F)c2F)cc1O` [Compound 1020, 4-(2-(N-(4-chlorobenzyl)-(2,3,4,5,6-pentafluorophenyl)sulfon-amido)-N-(3-(cyclopropylmethoxy)-5-hydroxybenzyl)acetamido)-2-hydroxybenzoic acid] displayed an IC50 of 3.16 to 100 µM.

As to `COc1ccc(CN(CC(=O)N(Cc2cc(C3CC3)cc(C(C)(C)C)c2)c2ccc(C(=O)O)c(O)c2)S(=O)(=O)c2c(F)c(F)c(F)c(F)c2F)cc1` [Compound 1026, 4-(N-(3-(tert-butyl)-5-cyclopropylbenzyl)-2-(N-(4-methoxybenzyl)-(2,3,4,5,6-pentafluoro-phenyl)sulfonamido)acetamido)-2-hydroxybenzoic acid], the IC50 is 3.16 to 100 µM.

In turn, `COc1ccc(CN(CC(=O)N(Cc2cc(C3CC3)cc(C(C)(C)C)c2)c2ccc(C(=O)O)c(O)c2)S(=O)(=O)c2c(F)c(F)c(F)c(F)c2F)cc1F` [Compound 1027, 4-(N-(3-(tert-butyl)-5-cyclopropylbenzyl)-2-(N-(3-fluoro-4-methoxybenzyl)-(2,3,4,5,6-pentafluoro-phenyl)sulfonamido)acetamido)-2-hydroxybenzoic acid] yielded an IC50 of 3.16 to 100 µM.

In turn, `COc1cc(CN(CC(=O)N(Cc2cc(C3CC3)cc(C(C)(C)C)c2)c2ccc(C(=O)O)c(O)c2)S(=O)(=O)c2c(F)c(F)c(F)c(F)c2F)ccc1F` [Compound 1028, 4-(N-(3-(tert-butyl)-5-cyclopropylbenzyl)-2-(N-(4-fluoro-3-methoxybenzyl)-(2,3,4,5,6-pentafluoro-phenyl)sulfonamido)acetamido)-2-hydroxybenzoic acid] showed a half-maximal inhibitory concentration (IC50) of 1 to 3.16 µM.

For `CC(C)(C)c1cc(CN(C(=O)CN(Cc2ccc(Cl)cc2)S(=O)(=O)c2c(F)c(F)c(F)c(F)c2F)c2ccc(O)c(O)c2)cc(C2CC2)c1` [Compound 1029, N-(3-(tert-butyl)-5-cyclopropylbenzyl)-2-(N-(4-chlorobenzyl)-(2,3,4,5,6-pentafluorophenyl)sulfonamido)-N-(3,4-dihydroxyphenyl) acetamide], the IC50 is 3.16 to 100 µM.

Compound `CC(C)(C)c1cc(CN(C(=O)CN(Cc2ccc(Cl)cc2)S(=O)(=O)c2c(F)c(F)c(F)c(F)c2F)c2cc(O)cc(O)c2)cc(C2CC2)c1` [Compound 1030, N-(3-(tert-butyl)-5-cyclopropylbenzyl)-2-(N-(4-chlorobenzyl)-(2,3,4,5,6-pentafluorophenyl)sulfonamido)-N-(3,5-dihydroxyphenyl) acetamide] registered an IC50 of 3.16 to 100 µM.

As for `CC(C)(C)c1cc(CN(C(=O)CN(Cc2ccc(Cl)cc2)S(=O)(=O)c2c(F)c(F)c(F)c(F)c2F)c2ccc(C(=O)NO)cc2)cc(C2CC2)c1` [Compound 1032, 4-(N-(3-(tert-butyl)-5-cyclopropylbenzyl)-2-(N-(4-chlorobenzyl)-(2,3,4,5,6-pentafluorophenyl)sulfon-amido)acetamido)-N-hydroxybenzamide], the IC50 was in the range of 3.16 to 100 µM.

`CC(C)(C)c1cc(CN(C(=O)CN(Cc2cccc(O)c2)S(=O)(=O)c2c(F)c(F)c(F)c(F)c2F)c2ccc(C(=O)O)c(O)c2)cc(C2CC2)c1` [Compound 1035, 4-(N-(3-(tert-butyl)-5-cyclopropylbenzyl)-2-(N-(3-hydroxybenzyl)-(2,3,4,5,6-pentafluoro-phenyl)sulfonamido)acetamido)-2-hydroxybenzoic acid]: the IC50 fell in the range of 3.16 to 100 µM.

Compound `CC(C)(C)c1cc(CN(C(=O)CN(Cc2ccccc2O)S(=O)(=O)c2c(F)c(F)c(F)c(F)c2F)c2ccc(C(=O)O)c(O)c2)cc(C2CC2)c1` [Compound 1036, 4-(N-(3-(tert-butyl)-5-cyclopropylbenzyl)-2-(N-(2-hydroxybenzyl)-(2,3,4,5,6-pentafluoro-phenyl)sulfonamido)acetamido)-2-hydroxybenzoic acid] returned an IC50 of 1 to 3.16 µM.

Turning to `COc1cccc(CN(CC(=O)N(Cc2cc(C3CC3)cc(C(C)(C)C)c2)c2ccc(C(=O)O)c(O)c2)S(=O)(=O)c2c(F)c(F)c(F)c(F)c2F)c1` [Compound 1038, 4-(N-(3-(tert-butyl)-5-cyclopropylbenzyl)-2-(N-(3-methoxybenzyl)-(2,3,4,5,6-pentafluoro-phenyl)sulfonamido)acetamido)-2-hydroxybenzoic acid], the IC50 lay within 3.16 to 100 µM.

For the compound `COC(=O)C(C)(C)c1ccc(N(Cc2cc(C3CC3)cc(C(C)(C)C)c2)C(=O)CN(Cc2ccc(Cl)cc2)S(=O)(=O)c2c(F)c(F)c(F)c(F)c2F)cc1` [Compound 1042, methyl 2-(4-(N-(3-(tert-butyl)-5-cyclopropylbenzyl)-2-(N-(4-chlorobenzyl)-(2,3,4,5,6-pentafluorophenyl)sulfon-amido)acetamido)phenyl)-2-methylpropanoate], the 50% inhibitory concentration (IC50) was in the range of 3.16 to 100 µM.

Turning to `COC(=O)c1ccc(N(Cc2cc(C3CC3)cc(C(C)(C)C)c2)C(=O)CN(Cc2ccc(Cl)cc2)S(=O)(=O)c2c(F)c(F)c(F)c(F)c2F)cc1O` [Compound 1051, methyl 4-(N-(3-(tert-butyl)-5-cyclopropylbenzyl)-2-(N-(4-chlorobenzyl)-(2,3,4,5,6-pentafluorophenyl)sulfon-amido)acetamido)-2-hydroxybenzoate], the IC50 was 3.16 to 100 µM.

`CC(C)(C)c1cc(CN(C(=O)CN(Cc2ccccc2F)S(=O)(=O)c2c(F)c(F)c(F)c(F)c2F)c2ccc(C(=O)O)cc2NS(C)(=O)=O)cc(C2CC2)c1` [Compound 1059, 4-(N-(3-(tert-butyl)-5-cyclopropylbenzyl)-2-(N-(2-fluorobenzyl)-(2,3,4,5,6-pentafluoro-phenyl)sulfonamido)acetamido)-3-(methylsulfonamido) benzoic acid] registered an IC50 of 3.16 to 100 µM.

`CC(C)Cc1cc(CN(C(=O)CN(Cc2ccccc2F)S(=O)(=O)c2c(F)c(F)c(F)c(F)c2F)c2ccc(C(=O)O)c(O)c2)cc(C2CC2)c1` [Compound 1067, 4-(N-(3-cyclopropyl-5-isobutylbenzyl)-2-(N-(2-fluorobenzyl)-(2,3,4,5,6-pentafluoro-phenyl)sulfonamido)acetamido)-2-hydroxybenzoic acid] came in with an IC50 of 3.16 to 100 µM.

As for `CN(C)c1cc(C(=O)O)cc(F)c1N(Cc1cc(C2CC2)cc(C(C)(C)C)c1)C(=O)CN(Cc1ccccc1F)S(=O)(=O)c1c(F)c(F)c(F)c(F)c1F` [Compound 1069, 4-(N-(3-(tert-butyl)-5-cyclopropylbenzyl)-2-(N-(2-fluorobenzyl)-(2,3,4,5,6-pentafluoro-phenyl)sulfonamido)acetamido)-3-(dimethylamino)-5-fluorobenzoic acid], the half-maximal inhibitory concentration (IC50) fell in the range of 0.316 to 1 µM.

As to `CC(C)(C)c1cc(CN(C(=O)CN(Cc2ccccc2F)S(=O)(=O)c2c(F)c(F)c(F)c(F)c2F)c2ccc(C(=O)O)cc2NCCCCl)cc(C2CC2)c1` [Compound 1074, 4-(N-(3-(tert-butyl)-5-cyclopropylbenzyl)-2-(N-(2-fluorobenzyl)-(2,3,4,5,6-pentafluoro-phenyl)sulfonamido)acetamido)-3-((3-chloropropyl)amino) benzoic acid], the half-inhibitory concentration (IC50) was in the range of 1 to 3.16 µM.
